This is an account of results in patent US5017568A, “Steriod 5-alpha-reductase inhibitors” (SmithKline Beecham Corporation, priority 1990, dated 1991).

Experiment [1] deals with T1, human prostatic steroid 5-α-reductase (Homo sapiens, UniProt P31213).
T1 construct: Prostatic particles were obtained by differential centrifugation; from tissue; host or cells: hyperplastic human prostate, particulate fraction (140,000 x g pellet)
T1 sequence (P31213 1-254): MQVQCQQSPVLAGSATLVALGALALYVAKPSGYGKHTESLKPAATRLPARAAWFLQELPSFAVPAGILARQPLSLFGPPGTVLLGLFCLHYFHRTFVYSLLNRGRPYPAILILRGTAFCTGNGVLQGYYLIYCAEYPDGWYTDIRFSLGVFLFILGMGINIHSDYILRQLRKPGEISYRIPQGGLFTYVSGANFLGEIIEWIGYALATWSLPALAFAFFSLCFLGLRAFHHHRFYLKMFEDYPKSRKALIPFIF
Description: Inhibition of human prostatic steroid 5-α-reductase (conversion of [14C]-testosterone, prostatic particulates). The class given is biochemical. Particulars: for Ki: pH 5.0, 37° C., competitive versus testosterone assumed, Dixon analysis, read-out: Inhibition Constants of Human Prostatic Steroid 5-α-Reductase, Ki. As for the experimental part: Such diseases and conditions include acne vulgaris, seborrhea, female hirsutism, prostate diseases such as benign prostatic hypertrophy and prostatic adenocarcinoma and male pattern baldness. The potency of several compounds of the invention was tested for potency in inhibiting human steroid 5-α-reductase using tissue from hyperplastic human prostates. In determining potency in inhibiting the human enzyme, the following procedure was employed:
Frozen human prostates were thawed and minced into small pieces (5 mm^3). The tissue was homogenized in 3 to 5 volumes of 20 mM potassium phosphate, pH 6.5, buffer containing 0.33 M sucrose, 1 mM dithiothreitol, and 50 μM NADPH with a Brinkmann Polytron (Sybron Corporation, Westbury, N.Y.). The solution was subjected to sonication for 3 to 5 minutes with a Sonifier Branson Sonic Power Co.) followed by hand homogenization in a glass-to-glass Dounce homogenizer (Kontes Glass Company, Vineland, N.J.).
Prostatic particles were obtained by differential centrifugation at 600 or 1,000 x g for 20 minutes and 140,000 x g for 60 minutes at 4° C. The pellet obtained from the 140,000 x g centrifugation was washed with 5 to 10 tissue volumes of the buffer described above and recentrifuged at 140,000 x g. The resulting pellet was suspended in 20 mM potassium phosphate buffer, pH 6.5, containing 20% glycerol, 1 mM dithiothreitol, and 50 μM NADPH. The suspended particulate solution was stored at -80° C.
A constant amount of [^14 C]-testosterone (52 to 55 mCi/mmol, New England Nuclear, Boston, MA) in ethanol and varying amounts of the potential inhibitor in ethanol were deposited in test tubes and concentrated to dryness in a SAVANT Speed Vac. To each tube was added buffer, 20 μl of 10 mM NADPH and an aliquot of prostatic particulate solution to a final volume of 1.0 ml of 50 mM sodium citrate, pH 5.0. After incubating the solution at 37° C. for 20 to 30 minutes the reaction was quenched by the addition of 4 ml ethyl acetate and 0.25 μmol each of testosterone, dihydrotestosterone, androstanediol, and androstanedione as carriers. The organic layer was removed to a second test tube and evaporated to dryness in a Speed Vac. The residue was dissolved in 20 to 30 μl chloroform, spotted on an individual lane of a 20 x 20 cm prechannelled silica gel TLC plate (Si 250F PA, Baker Chemical) and developed twice with acetone:chloroform (1:9). The radiochemical content in the bands of the substrate and the products was determined with a BIOSCAN Imaging Scanner (Bioscan, Inc., Washington, D.C.). The percent of recovered radiolabel converted to product was calculated, from which enzyme activity was determined. All incubations were conducted such that no more than 12% of the substrate (testosterone) was consumed.
The experimentally obtained data was computer fitted to a linear function by plotting the reciprocal of the enzyme activity (1/velocity) against the variable inhibitor concentration (Dixon, M. (1953), Biochem. J., 55, 170). Assuming that the steroidal inhibitor is a competitive inhibitor against testosterone, a value for the inhibition constant (Ki) can be calculated from equation 1:
Ki =(B/A)/[…]) Equation 1

Experiment [2] deals with steroid 5-α-reductase. Particulars: cited from earlier work; for mode of 5-α-reductase inhibition: in words.
In experiment [3] the test system is steroid 5-α-reductase. Kind of experiment: In vivo inhibition of steroid 5-α-reductase: prostatic DHT (and testosterone) levels in rats. More on the design: species or system rat. As for the experimental part:
Certain compounds of the invention also were tested for their in vivo potency in inhibiting steroid 5-α-reductase activity. Male Charles River CD rats, 48 days old, weighing approximately 200 gm were administered 10 mg/kg of N,N-diisopropyl androst-3,5-diene-17β-carboxamide-3-carboxylic acid dissolved in propylene glycol and diluted in normal saline. Following compound administration the animals were sacrificed, the ventral prostates were excised, and DHT levels were measured by the following procedure.
Prostate tissue was excised, trimmed, weighed, minced and washed with phosphate buffer. The tissue then was homogenized in phosphate buffer and extracted by addition of ethyl acetate and mixing on an orbital mixer for forty-five minutes. The ethyl acetate was evaporated, the residue was reconstituted in ethanol, and was centrifuge filtered using […] filter paper. The components then were separated using reverse-phase HPLC collecting the DHT fraction. The fraction was reduced to dryness and reconstituted in standard DHT assay buffer available from Amersham. DHT levels then were measured using standard techniques such as radioimmunoassay.
Using procedures similar to those described above the in vivo effects of 17β-N-t-butylcarbox-amide-androst-3,5-diene-3-carboxylic acid also were studied. Rats received a single oral dose of vehicle or 5, 10, 20 or 50 mg/kg of this compound.

In experiment [4] the test system is ventral prostate. Kind of experiment: Effect of repeated dosing on prostatic growth / ventral prostate weight in rats. It is filed as in vivo, rat. Particulars: for ventral prostate weight, percent of control: rats, two weeks. The protocol: N,N diisopropyl-androst-3,5 diene 17β-carboxamide-3-carboxylic acid also was tested for its effects on prostatic growth.

Experiment [5] has as its system seminal vesicle. Kind of experiment: Effect of repeated dosing on seminal vesicle weight in rats. It is filed as in vivo, rat. Particulars: rats, 1, 5, 10, 25 or 50 mg/kg twice daily, two weeks.
Experiment [6] relates to steroid-5-α-reductase. Description: In vitro steroid 5-α-reductase inhibition. It is filed as biochemical. Particulars: in words.
Setting [7] is: Irreversible, read-out: 5-α-reductase inhibition constant (Table 1).

Entries after “also recorded” stand apart in the source; their conditions may differ. Where two headings read alike, the source gives them in different places.

For the molecule `C[C@H](CO)[C@H]1CC[C@H]2[C@@H]3CC[C@H]4C(F)=C(C(=O)O)CC[C@]4(C)[C@H]3CC[C@]12C`, the Ki in experiment [1] is 2000 nM.

With `CCOC(=O)C1=CC2=CC[C@H]3[C@@H]4CC[C@H](C(=O)N(C(C)C)C(C)C)[C@@]4(C)CC[C@@H]3[C@@]2(C)CC1`, the Ki in experiment [1] was found to be 4000 nM.

Turning to `CC(C)N(C(=O)[C@H]1CC[C@H]2[C@@H]3CC[C@H]4C(F)=C(C(=O)O)CC[C@]4(C)[C@H]3CC[C@]12C)C(C)C`, the Ki in experiment [1] turned out to be 26 nM.

As for `CC(C)N(C(=O)[C@H]1CC[C@H]2[C@@H]3CC=C4C=C(C(=O)O)C=C[C@]4(C)[C@H]3CC[C@]12C)C(C)C`, in experiment [1], the Ki was found to be 50 nM.

`CC(C)N(C(=O)[C@H]1CC[C@H]2[C@@H]3CC(C(F)(F)F)=C4C=C(C(=O)O)CC[C@]4(C)[C@H]3CC[C@]12C)C(C)C`: in experiment [1], the Ki was found to be 900 nM.

For `CC(C)(C)NC(=O)[C@H]1CC[C@H]2[C@@H]3CC[C@H]4C=C(C(=O)O)CC[C@]4(C)[C@H]3CC[C@]12C`, the Ki in experiment [1] is 110 nM.

Take `C[C@]12CC[C@H]3[C@@H](CCC4=CC(=O)CC[C@@]43C)[C@@H]1CC[C@@H]2C(=O)O` [(1)]: the Ki in experiment [2] (Hsia and Voight 1973, read-out: K1) was 1100 nM.

Take `CC(=O)[C@H]1CC[C@H]2[C@@H]3CC=C=CC(=O)CCC(=O)[C@H]3CC[C@]12C` [(2)]: in experiment [2] (setting [7]), the Ki was 1000 nM. In addition, in experiment [2], the “mode of 5-α-reductase inhibition” value was “Irreversible; also recorded: affinity label for 5 -α-reductase”.

With `CC(CO)[C@H]1CC[C@H]2[C@@H]3CC[C@H]4C(=[N+]=[N-])C(=O)CC[C@]4(C)[C@H]3CC[C@]12C` (some centres unmarked) [(3)], the Ki in experiment [2] (Irreversible, Blohm, et al., 1980, read-out: 5-α-reductase inhibition constant (Table 1)) was 35 nM. Besides, the “mode of 5-α-reductase inhibition” value in experiment [2] was “Irreversible; also recorded: potent, time-dependent inhibitor”.

As for `CCN(CC)C(=O)[C@H]1CC[C@H]2[C@@H]3CC[C@H]4N(C)C(=O)CC[C@]4(C)[C@H]3CC[C@]12C` [(4)], in experiment [2] (Liang, et al., 1983, read-out: 5-α-reductase inhibition constant (Table 1)), the Ki is 5 nM.

For `C=C1C[C@@H]2[C@H](CC[C@@]3(C)[C@H]2CC[C@]3(OC(C)=O)C(C)=O)[C@@]2(C)CCC(=O)C=C12` [(5)], the Ki in experiment [2] (setting [7]) was 1250 nM. The “mode of 5-α-reductase inhibition” value in experiment [2] is recorded as “Irreversible; also recorded: time-dependent inactivator”.

As to `CC(C)N(C(=O)[C@H]1CC[C@H]2[C@@H]3CC=C4C=C(C(=O)O)CC[C@]4(C)[C@H]3CC[C@]12C)C(C)C` [N,N-Diisopropyl-androst-3,5-diene-17β-carboxamide-3-carboxylic acid], the “duration of decreased DHT levels” value in experiment [3] (male CD rats, 10 mg/kg) is recorded as “greater than eight”. Moreover, the “decrease of prostatic DHT levels relative to vehicle-treated controls” value in experiment [3] (male CD rats, 10 mg/kg, four hours after administration) is given as “forty”. Further, in experiment [3] (male CD rats, 10 mg/kg, twenty four hours after treatment), the “return of prostatic DHT levels to control” value is given as “had returned to control levels”. Moreover, the prostatic growth result in experiment [4] (immature rats, 0.5 to 50 mg/kg twice daily oral, fourteen days) is listed as “dose dependent decrease in prostatic growth”. Further, the “decrease of prostate weight versus controls” value in experiment [4] (immature rats, maximum dose group (50 mg/kg), twice daily oral, fourteen days) was “forty to fifty”.

Turning to `CC(C)(C)NC(=O)[C@H]1CC[C@H]2[C@@H]3CC=C4C=C(C(=O)O)CC[C@]4(C)[C@H]3CC[C@]12C` [N-t-Butyl Androst-3,5-diene-17β-carboxamide-3-Carboxylic Acid], the “prostate dihydrotestosterone levels, percent of controls” value in experiment [3] (rats, 10 mg/kg, all time points from two to eighteen hours) is “approximately sixty”; in experiment [3] (rats, single oral dose 5, 10, 20 or 50 mg/kg (all doses)), “approximately fifty”. In addition, the prostate testosterone levels result in experiment [3] (rats, 10 mg/kg, over twenty four hours) is recorded as “viable without consistent trends”; in experiment [3] (rats, single oral dose 5, 10, 20 or 50 mg/kg), “remained unaffected”. Besides, the “return of dihydrotestosterone levels to control values” in experiment [3] (rats, 10 mg/kg, twenty-four hours post treatment) was “returned to control values”. Besides, the “ventral prostate weight, percent of control” value in experiment [4] (5 mg/kg twice daily) is “ninety”; in experiment [4] (10 and 50 mg/kg twice daily), “sixty five”. Also, the seminal vesicle weights result in experiment [5] is recorded as “significantly reduced at all treatment levels”.

Take `CC(C)(C)NC(=O)[C@H]1CC[C@H]2[C@@H]3CC=C4C=C(C(=O)O)CC[C@]4(C)[C@H]3CC[C@]12C` [drawing 35]: in experiment [1], the Ki turned out to be 30 nM.

As to `COC(=O)C1=CC2=CC[C@H]3[C@@H]4CC[C@H](C(=O)N(C(C)C)C(C)C)[C@@]4(C)CC[C@@H]3[C@@]2(C)CC1` [methyl ester of the above compound, 3-Carbomethoxy-androst-3,5-diene-17β-N,N -diisopropylcarboxamide], the “decrease of prostatic DHT levels relative to vehicle-treated controls” value in experiment [3] (rats, single 10 mg/kg dose, after six hours) is “forty eight”. In addition, the “steroid 5-α-reductase inhibition in vivo” value in experiment [3] (rats, single 10 mg/kg dose, in words) is on record as “significant enzyme inhibition”. Further, the “steroid-5-α-reductase inhibition in vitro” value in experiment [6] is listed as “does not inhibit steroid-5-α-reductase in vitro”.

For the molecule `C[C@]12CC[C@H]3[C@@H](CCC4=CC(=O)CC[C@@]43C)[C@@H]1CC[C@@H]2O` [testosterone, reference compound], the Km – broadly, the substrate concentration at which the rate is half of its maximum – in experiment [1] (determined in a separate experiment, read-out: Km of the substrate (testosterone)) came out at 4.5 µM.
